Eight compounds from patent US12415811B2, “1,2,3',5'-tetrahydro-2'h-spiro[indole-3,1'-pyrrolo[3,4-C]pyrrole]-2,3'-dione compounds as therapeutic agents activating TP53” (ADAMED PHARMA, S.A., priority 2018, dated 2025) can be followed below.

Read-outs that look alike come from different tables or passages of the source.

The subject of data set [1] is SJSA-1 osteosarcoma cell line. Description: Cell viability MTT assay. The note with it: Homo sapiens, 72 h incubation, average of 2-5 experiments. The class given is cell-based. The procedure: The effect of the invented p53-Mdm2 inhibitors on cell viability has been assessed using MTT assay. It is a colorimetric assay that measures conversion of tetrazolium ring of the soluble yellow dye (MTT) into insoluble purple formazan. This process is catalyzed solely in mitochondrial dehydrogenases of living cells.
Cells were seeded on 96-well plates and then treated with successive dilutions of tested compounds. After 72 h incubation, MTT was added to the final concentration 0.5 mg/ml. The cells were further incubated for the next 4 h. Then the solution was drained and the remaining formazan crystals were dissolved in 100 μl DMSO. […] All the MTT experiments were independently repeated 2-5 times. Dose-dependent binding curves and IC50 values were calculated using GraphPad Prism 5. The presented IC50 values represent the average value from all the performed experiments (Table 3).
(Formazan colour is commonly taken as a measure of viable cells.)

Data set [2] in a line: In vitro intrinsic clearance in human microsomes. The data set is classed as in vitro ADME. Conditions: pH 7.4; human microsomes 0.5 mg/ml, 1 μM compound, 37° C., up to 1 hour; read-out: human MS Clint. The procedure:
(§1) Metabolic stability of the compounds of the invention has been assessed by measurement of the in vitro intrinsic clearance in murine and human microsomes.
(§2) 10 mM stock solutions of markers and test compounds were prepared in DMSO. These were diluted 100-fold in 91:9 MeCN:DMSO to obtain a 100 μM assay stock. 10 mM NADPH was made up in 0.1M phosphate buffer (pH7.4). Microsomes were thawed in a waterbath at 37° C., and diluted to give a final assay concentration of 0.5 mg/ml.
(§3) 100 μM assay stocks were added to give a final concentration of 1 μM to incubation tubes containing buffer and NADPH (final assay concentration is 1 mM). Incubation tubes and microsomes were pre-warmed at 37° C. for 3 minutes. The microsomes were then added to the incubation tubes which were kept at 37° C. and shaken using the orbital shaker for the duration of the assay. Samples were taken at 6 pre-determined time points up to 1 hour and transferred to the prepared quench tubes containing an appropriate solvent with internal standard.
(§4) Quenched samples are mixed thoroughly and protein precipitated at −20° C. for a minimum of 12 hours. Samples were then centrifuged at 4° C. Supernatants were transferred to a fresh 96 well plate, compatible with the auto-sampler. The plate was sealed with a pre-slit silicone mat and analyzed by LC-MS/MS.

The subject of data set [3] is SJSA-1 xenograft. Description: In vivo efficacy in the SJSA-1 xenograft model in mice. The note with it: for inhibition in vivo at 12.5 mg/kg: Mus musculus, po, 12.5 mg/kg p.o., q1d, SJSA-1 xenograft in Crl:CD-1-Foxn1nu mice, mean. The procedure:
The experiment was conducted on female mice from the Crl:CD-1-Foxn1nu strain. Mice were inoculated subcutaneously in the right flank with cancer cell line SJSA-1 in the amount of 3×10^6 cells suspended in 100 μl HBSS: Matrigel matrix in a 3:1 ratio per mouse. On the 17th day after inoculation mice were divided into groups, so that in each group the mean tumor volume was similar and averaged around 200 mm^3. Experiment groups were selected, each consisting of 8 mice: Control NaCl 0.9% and compounds. Compounds 1-11 were dissolved in 56.60% PEG 400, 9.43% Cremophor RH40, 9.43% ETOH, 18.87% Labrafil M1944CS, 5.67% DMSO. For Compound 107 from WO2015/189799, group of 7 mice was used, and it was dissolved in 15% PEG400, 10% Cremophor EL, 75% H2O.
[…] During the course of experiment mice were weighed before each administration, —twice/thrice a week. Animal welfare was monitored daily. No significant difference in body weight or welfare was observed between experiment groups during and at the end of study.
Change in tumor volume was monitored twice/thrice a week starting from the first day of administration. Tumor volume was calculated based on its length and width measured with an electronic calipers: V[mm^3]=d^2×D/2
The tumor volume in the groups was measured up to 101 days after inoculation (72 days after last administration). Results of the experiment were expressed as mean values of tumor growth inhibition (TGI) ±SEM (Table 4). Tumor growth inhibition was calculated using the following formula TGI [%]=[100−[…]]
where C— mean tumor size in control group, T—mean tumor size in treated group. All calculations and graphs were performed using GraphPad Prism 5 software.

Data set [4] concerns the target p53-Mdm2 interaction (Homo sapiens (Human), UniProt Q00987). Description: Fluorescence polarization (FP) binding assay, inhibition of p53-Mdm2 interaction. Conditions: 75 nM Mdm2 (amino acids 1-111), 10 nM FAM-labelled p53 peptide; IC50 transformed to Ki using Kenakin equation. The procedure: The inhibition of p53-Mdm2 interaction was measured using a fluorescence polarization (FP) binding assay. FP measures the rotational movement of molecules in a homogenous suspension. For this assay, N-terminal domain of Mdm2 protein (amino acids 1-111) is combined with a fluorescein-labeled (FAM) peptide derived from p53 trans-activation domain (Sequence: 5-FAM-TSFAEYWNLLSP). Upon excitation of the fluorescent ligand with linearly polarized light the peptide emits perpendicularly polarized light. If the peptide is bound by Mdm2, rotation will slow down and the perpendicular component will proportionally decrease. In opposition disruption of the peptide-Mdm2 complex due to binding of an inhibitor to the p53 binding site of Mdm2 results in releasing of peptide and decreasing of emitted light polarization.
Fluorescence polarization experiments were read on Biotek Cytation 5 reader with the 470 nm excitation and 520 nm emission filters for fluorescein. The fluorescence polarization was measured in black 96-well plates (Corning, CLS3991) in room temperature. Purity of Mdm2 was controlled at >95%. Reaction buffer was optimized by adding 5 mM DTT and 0.1% zwitterionic detergent CHAPS to reduce effect of nonspecific interactions.
The test was performed by combining successive dilution of compounds diluted in dimethyl sulfoxide (DMSO, 5% final concentration) with 75 nM Mdm2 in reaction buffer (PBS, 0.1% CHAPS, 5 mM DTT (dithiothreitol)). After 15 minutes of incubation in room temperature 10 nM FAM-labelled peptide was added. Final reading was performed after 90 minutes of incubation. Dose-dependent binding curves and IC50 values were calculated using GraphPad Prism5 and next transformed to Ki values using Kenakin equation (Table 2).

Data set [5] can be described thus: In vitro intrinsic clearance in murine microsomes. The class given is in vitro ADME. Conditions: mouse, pH 7.4; murine microsomes 0.5 mg/ml, 1 μM compound, 37° C., up to 1 hour; read-out: murine MS Clint. The procedure: as §1, §2, §3, §4
Setting [6] is: after 7 doses, read-out: TGI P.O. 12.5 mg/kg (7 doses) [%].
Where [7] appears, read: after 12 doses, read-out: TGI P.O. 12.5 mg/kg (12 doses) [%].

Sequence of p53-Mdm2 interaction (Q00987 1-111): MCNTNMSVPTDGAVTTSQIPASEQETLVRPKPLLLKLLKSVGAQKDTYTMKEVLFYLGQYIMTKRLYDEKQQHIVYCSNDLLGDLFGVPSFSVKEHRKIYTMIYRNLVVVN

One may read the IC50 as the concentration needed to halve the response being measured. Read a high IC50 as lower potency. As a reminder, the Ki is a measure of affinity in units of concentration, obtained from inhibition or displacement. Take `COc1ncc(-n2cc3c(c2C(C)C)[C@@]2(C(=O)Nc4cc(Cl)ccc42)N(c2cccc(Cl)c2)C3=O)c(OC)n1` [Compound 1, (3S)-6-chloro-2′-(3-chlorophenyl)-5′-(2,4-dimethoxypyrimidin-5-yl)-6′-(propan-2-yl)-1,2,3′,5′-tetrahydro-2′H-spiro[indole-3,1′-pyrrolo[3,4-c]pyrrole]-2,3′-dione]: the half-maximal inhibitory concentration (IC50) in data set [1] was 0.18 µM. For the same compound, the microsomal CLint at 1 μM in data set [2] was under 3 µL/min/mg; in data set [5], 8.8 µL/min/mg. For the same compound, the values for the inhibition in vivo at 12.5 mg/kg in data set [3] (setting [6]) and in data set [3] (setting [7]) were 95% and 99.5%, respectively. In data set [4], this compound yielded an inhibition constant (Ki) of 1.8 nM.

In data set [1], `COc1ncc(-n2cc3c(c2C(C)C)[C@@]2(C(=O)Nc4cc(Cl)ccc42)N(c2cc(Cl)ccc2F)C3=O)c(OC)n1` [Compound 2, (3S)-6-chloro-2′-(5-chloro-2-fluorophenyl)-5′-(2,4-dimethoxypyrimidin-5-yl)-6′-(propan-2-yl)-1,2,3′,5′-tetrahydro-2′H-spiro[indole-3,1′-pyrrolo[3,4-c]pyrrole]-2,3′-dione] had an IC50 of 0.16 µM. The microsomal CLint at 1 μM in data set [2] is under 3 µL/min/mg; in data set [5] it was under 4 µL/min/mg. For the same compound, the values for the inhibition in vivo at 12.5 mg/kg in data set [3] (setting [6]) and in data set [3] (setting [7]) were 94.4% and 98.9%, respectively. The compound also yielded an inhibitory constant (Ki) in data set [4] of 1.7 nM.

Consider `COc1nc(OC)c(-n2cc3c(c2C(C)C)[C@@]2(C(=O)Nc4cc(Cl)ccc42)N(c2cc(Cl)ccc2C)C3=O)c(OC)n1` [Compound 3, (3S)-6-chloro-2′-(5-chloro-2-methylphenyl)-6′-(propan-2-yl)-5′-(trimethoxypyrimidin-5-yl)-1,2,3′,5′-tetrahydro-2′H-spiro[indole-3,1′-pyrrolo[3,4-c]pyrrole]-2,3′-dione], for which inhibition in data set [1] was half-maximal at 0.07 µM (IC50). Moreover, the microsomal CLint at 1 μM in data set [2] and in data set [5] was under 3 µL/min/mg throughout. The inhibition in vivo at 12.5 mg/kg was determined as 94.2% in data set [3] (setting [6]) and 99.6% in data set [3] (setting [7]). Further, the inhibitory constant (Ki) in data set [4] is 2.4 nM.

In data set [1], `COc1ncc(-n2cc3c(c2C(C)C)[C@@]2(C(=O)Nc4cc(Cl)ccc42)N(c2ccc(F)c(Cl)c2)C3=O)c(OC)n1` [Compound 4, (3S)-6-chloro-2′-(3-chloro-4-fluorophenyl)-5′-(2,4-dimethoxypyrimidin-5-yl)-6′-(propan-2-yl)-1,2,3′,5′-tetrahydro-2′H-spiro[indole-3,1′-pyrrolo[3,4-c]pyrrole]-2,3′-dione] registered a concentration for half-maximal inhibition (IC50) of 0.32 µM. For the same compound, the microsomal CLint at 1 μM in data set [2] and in data set [5] was under 3 µL/min/mg throughout. Moreover, the inhibition in vivo at 12.5 mg/kg in data set [3] (setting [6]) amounted to 94.9%; in data set [3] (setting [7]) it was 99.5%. Also, in data set [4], the inhibitory constant (Ki) turned out to be 1.7 nM.

For the compound `COc1nc(OC)c(-n2cc3c(c2C(C)C)[C@@]2(C(=O)Nc4cc(Cl)ccc42)N(c2cc(Cl)ccc2F)C3=O)c(OC)n1` [Compound 5, (3S)-6-chloro-2′-(5-chloro-2-fluorophenyl)-6′-(propan-2-yl)-5′-(trimethoxypyrimidin-5-yl)-1,2,3′,5′-tetrahydro-2′H-spiro[indole-3,1′-pyrrolo[3,4-c]pyrrole]-2,3′-dione], the IC50 in data set [1] amounted to 0.18 µM. In addition, the microsomal CLint at 1 μM in data set [2] and in data set [5] was under 3 µL/min/mg in each case. Further, the inhibition in vivo at 12.5 mg/kg in data set [3] (setting [6]) came out at 85.8%; in data set [3] (setting [7]), 96%. Also, the Ki in data set [4] was found to be 2.2 nM.

The compound `COc1cc(N(C)C)ncc1-n1cc2c(c1C(C)C)[C@@]1(C(=O)Nc3cc(Cl)ccc31)N(c1cc(Cl)ccc1F)C2=O` [Compound 6, (3S)-6-chloro-2′-(5-chloro-2-fluorophenyl)-5′-[6-(dimethylamino)-4-methoxypyridin-3-yl]-6′-(propan-2-yl)-1,2,3′,5′-tetrahydro-2′H-spiro[indole-3,1′-pyrrolo[3,4-c]pyrrole]-2,3′-dione] displayed a half-inhibitory concentration (IC50) in data set [1] of 0.03 µM. Further, the microsomal CLint at 1 μM in data set [2] is 19.8 µL/min/mg; in data set [5], 33.6 µL/min/mg. The inhibition in vivo at 12.5 mg/kg is 92% in data set [3] (setting [6]) and 99.1% in data set [3] (setting [7]). In data set [4], the inhibition constant Ki came out at 1.7 nM.

As to `COc1cc(OC)c(-n2cc3c(c2C(C)C)[C@@]2(C(=O)Nc4cc(Cl)ccc42)N(c2cc(Cl)ccc2F)C3=O)cn1` [Compound 9, (3S)-6-chloro-2′-(5-chloro-2-fluorophenyl)-5′-(4,6-dimethoxypyridin-3-yl)-6′-(propan-2-yl)-1,2,3′,5′-tetrahydro-2′H-spiro[indole-3,1′-pyrrolo[3,4-c]pyrrole]-2,3′-dione], the IC50 in data set [1] turned out to be 0.12 µM. Further, the results for the inhibition in vivo at 12.5 mg/kg in data set [3] (setting [6]) and in data set [3] (setting [7]) were 89.5% and 97.7%, respectively. The same compound displayed a Ki in data set [4] of 2 nM.

Turning to `CCC(C)c1c2c(cn1-c1cnc(OC)nc1OC)C(=O)N(c1cc(Cl)ccc1F)[C@]21C(=O)Nc2cc(Cl)ccc21` (stereo partly shown) [Compound 11, (3)-6′-(butan-2-yl)-6-chloro-2′-(5-chloro-2-fluorophenyl)-5′-(2,4-dimethoxypyrimidin-5-yl)-1,2,3′,5′-tetrahydro-2′H-spiro[indole-3,1′-pyrrolo[3,4-c]pyrrole]-2,3′-dione], in data set [1], the half-maximal inhibitory concentration (IC50) amounted to 0.05 µM. Besides, in data set [3] (14 doses of 12.5 mg/kg p.o., SJSA-1 xenograft), the “effect of treatment on tumors (in words)” value is recorded as “complete eradication of tumors”. Also, the values for the inhibition in vivo at 12.5 mg/kg in data set [3] (setting [6]) and in data set [3] (setting [7]) were 93.7% and 99.7%, respectively. In addition, in data set [3] (after 14 doses of 12.5 mg/kg p.o., follow-up to day 101), the “regrowth of lesions during follow-up” value was “none of the lesions exhibited regrowth”. In data set [4], the Ki came to 2.5 nM.
